Results reported in patent US12275731B2, “Azaindole inhibitors of wild-type and mutant forms of LRRK2” (DANA-FARBER CANCER INSTITUTE, INC., priority 2018, dated 2025).

Tests used:
Assay in all cases: KinomeScan profiling
Type in all cases: binding
[1] = target: T1, PIK3CD (Homo sapiens, UniProt O00329); settings: read-out: % control
T1 construct: purchased KinomeScan® (panel service)
T1 sequence (O00329 1-1044): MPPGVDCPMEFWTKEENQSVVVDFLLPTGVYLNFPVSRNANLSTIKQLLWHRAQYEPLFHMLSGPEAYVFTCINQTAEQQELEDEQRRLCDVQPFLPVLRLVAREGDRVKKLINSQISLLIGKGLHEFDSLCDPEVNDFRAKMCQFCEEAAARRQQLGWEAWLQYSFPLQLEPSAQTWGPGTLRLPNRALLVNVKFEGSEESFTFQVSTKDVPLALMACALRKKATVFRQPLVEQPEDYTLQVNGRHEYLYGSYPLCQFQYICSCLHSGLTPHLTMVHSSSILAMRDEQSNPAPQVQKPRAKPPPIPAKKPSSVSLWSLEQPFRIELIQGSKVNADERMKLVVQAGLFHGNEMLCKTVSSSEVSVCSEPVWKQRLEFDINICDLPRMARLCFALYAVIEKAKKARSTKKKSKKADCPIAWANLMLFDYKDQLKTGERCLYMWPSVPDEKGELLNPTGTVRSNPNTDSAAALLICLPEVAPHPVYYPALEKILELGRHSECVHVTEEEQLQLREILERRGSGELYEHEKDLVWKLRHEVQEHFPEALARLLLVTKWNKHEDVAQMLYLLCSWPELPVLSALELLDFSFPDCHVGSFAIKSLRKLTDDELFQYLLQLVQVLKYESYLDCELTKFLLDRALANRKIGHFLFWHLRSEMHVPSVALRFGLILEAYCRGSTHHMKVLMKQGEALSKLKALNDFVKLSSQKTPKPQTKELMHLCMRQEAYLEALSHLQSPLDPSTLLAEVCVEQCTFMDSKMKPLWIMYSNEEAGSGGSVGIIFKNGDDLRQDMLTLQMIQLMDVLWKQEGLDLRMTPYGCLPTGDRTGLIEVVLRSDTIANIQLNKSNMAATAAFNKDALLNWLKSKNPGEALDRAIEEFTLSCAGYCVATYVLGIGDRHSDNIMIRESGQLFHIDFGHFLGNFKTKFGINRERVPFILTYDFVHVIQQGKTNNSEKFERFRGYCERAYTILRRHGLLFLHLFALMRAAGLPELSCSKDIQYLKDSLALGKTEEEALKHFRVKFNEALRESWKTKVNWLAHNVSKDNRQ
In short: (§1)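 At 1 μM in DMSO, compounds are run through a broad 468-member kinase panel. The luminescent read-out is normalised so that vehicle gives 100% and a positive control gives 0%; any kinase falling below 35% is treated as a target.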

[2] = target: T2, SGK3 (Homo sapiens, UniProt Q96BR1); settings: SGK3, 1 μM; read-out: % control
T2 construct: purchased KinomeScan® (panel service)
T2 sequence (Q96BR1 1-496): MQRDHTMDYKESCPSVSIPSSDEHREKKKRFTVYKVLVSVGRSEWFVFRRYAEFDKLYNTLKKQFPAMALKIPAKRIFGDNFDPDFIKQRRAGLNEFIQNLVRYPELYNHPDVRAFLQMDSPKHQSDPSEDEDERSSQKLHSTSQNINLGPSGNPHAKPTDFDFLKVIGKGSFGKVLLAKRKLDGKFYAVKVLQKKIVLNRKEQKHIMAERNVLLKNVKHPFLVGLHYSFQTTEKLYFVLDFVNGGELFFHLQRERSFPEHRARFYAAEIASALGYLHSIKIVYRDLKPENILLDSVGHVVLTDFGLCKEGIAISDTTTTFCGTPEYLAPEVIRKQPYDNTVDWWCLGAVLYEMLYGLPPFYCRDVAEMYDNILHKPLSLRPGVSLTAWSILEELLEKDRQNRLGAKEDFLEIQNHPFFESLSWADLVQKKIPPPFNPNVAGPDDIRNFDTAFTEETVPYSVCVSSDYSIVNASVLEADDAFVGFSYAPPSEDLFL
In short: as §1

[3] = target: T3, STK35 (Homo sapiens, UniProt Q8TDR2); settings: STK35, 1 μM; read-out: % control
T3 construct: purchased KinomeScan® (panel service)
T3 sequence (Q8TDR2 whole entry): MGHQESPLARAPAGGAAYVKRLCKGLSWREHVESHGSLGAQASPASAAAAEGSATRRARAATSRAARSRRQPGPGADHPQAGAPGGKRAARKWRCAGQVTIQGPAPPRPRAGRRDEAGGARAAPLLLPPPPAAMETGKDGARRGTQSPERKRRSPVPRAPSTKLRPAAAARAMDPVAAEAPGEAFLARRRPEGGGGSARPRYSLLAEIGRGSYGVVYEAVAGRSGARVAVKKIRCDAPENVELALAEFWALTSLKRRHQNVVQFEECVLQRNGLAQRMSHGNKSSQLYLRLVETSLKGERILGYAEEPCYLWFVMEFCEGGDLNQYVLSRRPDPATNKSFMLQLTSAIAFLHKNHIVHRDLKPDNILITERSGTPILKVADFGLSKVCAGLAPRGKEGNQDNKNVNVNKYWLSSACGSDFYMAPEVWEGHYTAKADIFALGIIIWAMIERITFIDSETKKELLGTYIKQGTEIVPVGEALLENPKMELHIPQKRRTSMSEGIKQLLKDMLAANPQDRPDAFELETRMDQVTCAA
In short: as §1

[4] = target: CDK4-cyclinD3 (Homo sapiens, UniProt P11802); settings: CDK4-cyclinD3, 1 μM; read-out: % control
Chain of CDK4-cyclinD3 (P11802 whole entry): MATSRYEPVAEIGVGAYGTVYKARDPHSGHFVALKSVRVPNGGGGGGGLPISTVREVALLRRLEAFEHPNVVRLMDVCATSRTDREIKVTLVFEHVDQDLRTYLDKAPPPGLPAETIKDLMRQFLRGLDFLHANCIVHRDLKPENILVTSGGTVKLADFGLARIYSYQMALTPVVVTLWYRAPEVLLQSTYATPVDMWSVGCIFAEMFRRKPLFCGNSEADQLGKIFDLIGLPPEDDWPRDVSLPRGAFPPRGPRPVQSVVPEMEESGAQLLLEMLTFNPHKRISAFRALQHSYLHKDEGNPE
Chain of CDK4-cyclinD3 (P30281 whole entry partner): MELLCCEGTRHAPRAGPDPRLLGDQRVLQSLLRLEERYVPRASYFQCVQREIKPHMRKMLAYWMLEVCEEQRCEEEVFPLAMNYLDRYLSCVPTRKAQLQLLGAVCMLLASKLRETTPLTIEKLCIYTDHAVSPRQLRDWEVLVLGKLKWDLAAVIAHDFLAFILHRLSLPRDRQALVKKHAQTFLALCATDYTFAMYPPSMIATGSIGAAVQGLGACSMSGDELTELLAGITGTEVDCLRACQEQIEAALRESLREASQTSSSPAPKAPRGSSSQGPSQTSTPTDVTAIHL
In short: as §1

[5] = target: T4, MAP4K2 (Homo sapiens, UniProt Q12851); settings: MAP4K2, 1 μM; read-out: % control
T4 sequence (Q12851 1-820): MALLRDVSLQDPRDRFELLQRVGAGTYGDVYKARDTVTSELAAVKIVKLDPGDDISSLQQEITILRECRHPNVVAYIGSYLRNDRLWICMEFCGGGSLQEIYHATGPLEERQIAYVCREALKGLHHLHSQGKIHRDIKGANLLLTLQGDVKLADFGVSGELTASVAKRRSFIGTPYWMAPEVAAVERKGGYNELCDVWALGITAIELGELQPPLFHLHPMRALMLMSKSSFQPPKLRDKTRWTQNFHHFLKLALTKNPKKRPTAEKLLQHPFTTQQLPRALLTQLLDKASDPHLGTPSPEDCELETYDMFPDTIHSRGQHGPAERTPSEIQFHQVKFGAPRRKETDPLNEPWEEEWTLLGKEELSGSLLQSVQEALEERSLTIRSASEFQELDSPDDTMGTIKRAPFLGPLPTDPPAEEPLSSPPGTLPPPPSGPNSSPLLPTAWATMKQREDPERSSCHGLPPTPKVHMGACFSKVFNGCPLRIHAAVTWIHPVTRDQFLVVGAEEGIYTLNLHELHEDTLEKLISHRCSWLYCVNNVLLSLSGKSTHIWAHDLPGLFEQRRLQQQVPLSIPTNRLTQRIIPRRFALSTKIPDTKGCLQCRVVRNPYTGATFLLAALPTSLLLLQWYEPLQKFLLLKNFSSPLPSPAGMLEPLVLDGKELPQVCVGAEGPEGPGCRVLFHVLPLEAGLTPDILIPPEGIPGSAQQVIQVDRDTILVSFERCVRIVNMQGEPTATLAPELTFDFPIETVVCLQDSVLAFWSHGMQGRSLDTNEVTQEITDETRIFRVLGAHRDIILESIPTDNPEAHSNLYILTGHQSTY
In short: as §1

Structure (SMILES)	remaining binding at 1 µM [1]	remaining binding at 1 µM [2]	remaining binding at 1 µM [3]	remaining binding at 1 µM [4]	remaining binding at 1 µM [5]
CNc1c(-c2cnn([C@H]3CCN(C(C)=O)C[C@@H]3F)c2)cnc2[nH]cc(Cl)c12 [Compound 77, 1-((3S,4S)-4-(4-(3-chloro-4-(methylamino)-1H-pyrrolo[2,3-b]pyridin-5-yl)-1H-pyrazol-1-yl)-3-fluoropiperidin-1-yl)ethan-1-one]	85%	37%	63%	98%	20%
O=C(c1ccc(-c2cnc3[nH]cc(Cl)c3c2NC2CCCC2)cc1)N1CCC(N2CCOCC2)CC1 [Compound 101, (4-(3-chloro-4-(cyclopentylamino)-1H-pyrrolo[2,3-b]pyridin-5-yl)phenyl)(4-morpholinopiperidin-1-yl)methanone]	100%	96%	99%	99%	20%
CNc1c(-c2ccc(C(=O)N3CCC(N4CCOCC4)CC3)cc2)cnc2[nH]cc(Cl)c12 [Compound 96, (4-(3-chloro-4-(methylamino)-1H-pyrrolo[2,3-b]pyridin-5-yl)phenyl)(4-morpholinopiperidin-1-yl)methanone]	84%	48%	50%	100%	1.1%
